Tested on: PC3 tumor-bearing mice
Assay: Ex vivo biodistribution of 68Ga-labeled radiotracers in PC3 xenografts
Description: U87MG and PC3 tumor-bearing mice: Female athymic BALB/c (6 weeks/16–20 g) and male athymic BALB/c nude mice (6 weeks/20–25 g) were implanted with U87MG or PC3 cells (5 × 10^6/100 µL PBS) into their right shoulder, respectively. The animals were used for biodistribution and PET/SPECT/CT imaging studies (Animal License No: BE98/2021).
Ten pmol (0.08–0.1 MBq) of the radiotracers in 100 µL of NaCl 0.9% were injected intravenously into the tail vein of U87MG and PC3 tumor-bearing mice and biodistribution studies were conducted at 1, 2, and 3 h after injection.
Saturation Binding Studies […]
The radioactivity of the culture medium, the receptor bound , the internalized and the externalized fractions were measured in a γ -counter. The externalized fraction of radioactivity was ex-pressed as the percentage of the total internalized amount.
[68Ga]Ga -DOTA.SA.FAPi and [ 68Ga]Ga -DOTAGA.(SA.FAPi) 2
Ten pmol ( 0.08 –0.1 MBq) of [68Ga]Ga -monomer and [ 68Ga]Ga -dimer in 100 µ L of NaCl 0.9% were injected intravenously into the tail vein of U87MG or PC3 tumor bearing mice . The PC3 tumor-bearing mice were used between the 15th and 17th day after the xenograft implantation and the size was 281 ± 75 mm3. The U87MG tumor-bearing mice were used between the 7th and 9th day after the implantation and the size was 210 ± 34 mm3. Animals were terminally anesthetized by intraperitoneal injection of an overdose of pento-barbital natrium (150 mg/kg; Streuli Pharma SA, Uznach, Switzerland) at 1, 2 and 3 h after injection of the radiotracers. The organs of interest were dissected and weighed, and the radioactivity in the tissue samples […]
was counted in a γ-counter. Biodistribution data are given as the percent of injected activity per gram of tissue (% IA/g) and as means ± SD (n = 4). […]
each radiotracer along with 20 nmol of UAMC1110 (total injected volume: 100 µL) and biodistribution stud-ies were performed 2 h after injection.
[177Lu]Lu-DOTA.SA.FAPi and [177Lu]Lu-DOTAGA.(SA.FAPi)2
Ten pmol (0.06-0.08 MBq) of [177Lu]Lu-monomer and [177Lu]Lu-dimer in 100 µL of NaCl 0.9% were injected intravenously into the tail vein of PC3 tumor-bearing mice. The PC3 tumor-bearing mice were used between the 15th and 17th day after the xenograft implantation and its size was 281 ± 75 mm3. Animals were terminally anesthetized by intraperitoneal injection of an overdose of pentobarbital natrium (150 mg/kg; Streuli Pharma SA, Uznach, Switzerland) 1, 4, 24 and 48 h after the injection of [177Lu]Lu-DOTA.SA.FAPi and at 4, 24, 48, 72 and 96 h after the injection of [177Lu]Lu-DOTAGA.(SA.FAPi)2. The organs of interest were dissected and weighed, and the radioactivity in the tissue samples was counted in a γ-counter. The biodistribution data are given as the percent of injected activity per gram of tissue (% IA/g) and as means ± SD (n = 4). […]
blood pools or if they were necrotic. Both tumor types were “clean” without extended vascularization; there […]
Small Animal Imaging Studies
PET images were obtained after injection of 200 pmol of [68Ga]Ga-DOTA.SA.FAPi and [68Ga]Ga-DOT-AGA.(SA.FAPi)2 (1.0–1.6 MBq/100 μL) into U87MG or PC3 xenografts at 1, 2 and 3 h after injection. Static imaging was acquired for a time period between 10 and 45 min at 1, 2 and 3 h post injection, respectively.
To visualize the extent of FAP-specific tumor uptake, PET/CT blocking studies were performed as described above, and static scans were obtained for 30 min 2 h after the injection of the radiotracer along with the blocking agent (20 nmol).
PET images were corrected for gallium-68 decay and reconstructed with 12 iterations of the maximum a posteriori (MAP) algorithm using a voxel size of 0.25 mm. No correction was applied for attenuation. In addition, a point spread function iterative deconvolution was applied. The images were normalized, filtered using a Gaussian 3D algorithm with a 1.3 mm isotropic kernel and generated using PMOD software. The CT was carried out using step and shoot mode and employed 45 kVp and 400 uA as settings. The images […]

[1] = 2 h blocking (20 nmol UAMC1110)

## N#C[C@@H]1CC(F)(F)CN1C(=O)CNC(=O)c1ccnc2ccc(OCCCCNc3c(NCCNC(=O)CN4CCN(CC(=O)[O-])CCN(CC(=O)[O-])CCN(CC(=O)[O-])CC4)c(=O)c3=O)cc12.[68Ga+3] [[^68Ga]Ga-DOTA.SA.FAPi]
1 h
  Biodistribution Blood: 8.5± 0.6 % IA/g
  Biodistribution Bone: 3.4±0.4 % IA/g
  Biodistribution Heart: 4.6±1.6 % IA/g
  Biodistribution Intestine: 2.7±0.2 % IA/g
  Biodistribution Kidney: 3.6±0.3 % IA/g
  Biodistribution Liver: 2.4±0.1 % IA/g
  Biodistribution Lung: 3.4±0.6 % IA/g
  Biodistribution Muscle: 2.5±0.2 % IA/g
  Biodistribution PC3-Tumor: 6.1±0.7 % IA/g
  Biodistribution Pancreas: 8.9±1.0 % IA/g
  Biodistribution Spleen: 2.5±0.1 % IA/g
  Biodistribution Stomach: 2.0±0.4 % IA/g
  Tumor/Blood ratio: 0.7±0.03
  Tumor/Liver ratio: 1.8±0.1
  Tumor/Muscle ratio: 2.4±0.4
  Tumor/Pancreas ratio: 0.7±0.1
2 h
  Biodistribution Blood: 4.8±0.3 % IA/g
  Biodistribution Bone: 2.0±0.2 % IA/g
  Biodistribution Heart: 1.9±0.1 % IA/g
  Biodistribution Intestine: 2.6±0.2 % IA/g
  Biodistribution Kidney: 2.7±0.2 % IA/g
  Biodistribution Liver: 2.7±0.2 % IA/g
  Biodistribution Lung: 2.2±0.1 % IA/g
  Biodistribution Muscle: 2.6±0.3 % IA/g
  Biodistribution PC3-Tumor: 5.4±2.4 % IA/g
  Biodistribution Pancreas: 6.4±0.5 % IA/g
  Biodistribution Spleen: 1.7±0.1 % IA/g
  Biodistribution Stomach: 1.4±0.1 % IA/g
  Tumor/Blood ratio: 1.2±0.6
  Tumor/Liver ratio: 2.1±0.1
  Tumor/Muscle ratio: 2.1±1.2
  Tumor/Pancreas ratio: 0.9±0.4
[1]
  Biodistribution Blood: 0.3±0.1 % IA/g
  Biodistribution Bone: 0.2±0.1 % IA/g
  Biodistribution Heart: 0.1±0.05 % IA/g
  Biodistribution Intestine: 0.4± 0.1 % IA/g
  Biodistribution Kidney: 1.2±0.2 % IA/g
  Biodistribution Liver: 0.2±0.04 % IA/g
  Biodistribution Lung: 0.3±0.1 % IA/g
  Biodistribution Muscle: 0.1±0.06 % IA/g
  Biodistribution PC3-Tumor: 0.5±0.1 % IA/g
  Biodistribution Pancreas: 0.1±0.06 % IA/g
  Biodistribution Spleen: 0.1± 0.04 % IA/g
  Biodistribution Stomach: 0.1±0.07 % IA/g
3 h
  Biodistribution Blood: 4.7±0.4 % IA/g
  Biodistribution Bone: 3.4±2.4 % IA/g
  Biodistribution Heart: 2.0±0.1 % IA/g
  Biodistribution Intestine: 2.4±0.4 % IA/g
  Biodistribution Kidney: 2.4±0.4 % IA/g
  Biodistribution Liver: 2.6±0.4 % IA/g
  Biodistribution Lung: 2.1±0.3 % IA/g
  Biodistribution Muscle: 2.3±0.2 % IA/g
  Biodistribution PC3-Tumor: 5.0±0.2 % IA/g
  Biodistribution Pancreas: 5.1±1.1 % IA/g
  Biodistribution Spleen: 1.8±0.5 % IA/g
  Biodistribution Stomach: 1.6±0.1 % IA/g
  Tumor/Blood ratio: 1.8±0.2
  Tumor/Liver ratio: 3.3±0.5
  Tumor/Muscle ratio: 3.8±0.4
  Tumor/Pancreas ratio: 1.7±0.4
